Laboratory results: patent US10517889B2, “Modulators of SMAD7 expression” (Ionis Pharmaceuticals, Inc., priority 2017, dated 2019)

Legend:
[1] = Plasma chemistry markers after oral gavage in beagle dogs (Example 12); conditions: 200 mg oral gavage for 4 weeks, plasma at day 30
[2] = Pharmacokinetics: oligonucleotide concentration in the plasma on day 28 after oral gavage in beagle dogs (Example 12); type: in vivo; conditions: 200 mg oral gavage
Procedure: There were 4 animals per group.
Plasma concentrations of Ionis oligonucleotides were also measured on Day 28 at various time points.

[3] = Organ weights after subcutaneous administration in CD-1 mice (Example 6); type: in vivo; conditions: end of study, 50 mg/kg subcutaneously twice a week for 7 weeks
In short: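 Male CD-1 mice aged 8-9 weeks, 4 per group, were dosed subcutaneously twice weekly for 7 weeks with 50 mg/kg oligonucleotide (100 mg/kg/week), with PBS controls. Organ weights were assessed, and plasma was collected on day 28.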

[4] = Organ weights after oral gavage in beagle dogs (Example 12); conditions: 200 mg oral gavage for 4 weeks, day 30
Procedure: Groups of 24-25 week old male beagle dogs were administered 200 mg Ionis human SMAD7 oligonucleotide by oral gavage once a week for 4 weeks. There were 4 animals per group. A control group of dogs received oral administration of distilled water. Dogs were sacrificed on day 30 approximately 48 hours after the final dose and organs and plasma were harvested for further analysis.

[5] = test system: mouse Smad7 mRNA; assay: Murine Smad7 mRNA expression after oral administration in BALB/c mice (Example 11); type: in vivo; conditions: 500 mg/kg/day oral for 3 weeks, 24 hours after last dose
In short: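 BALB/c mice (4 per group) dosed orally with Smad7 antisense oligonucleotides at 500 mg/kg/day for 3 weeks; PBS-dosed group as control. Murine Smad7 mRNA quantified in liver, kidneys, duodenum, ileum and colon with primer probe set RTS1114.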

[6] = Hematology assays after subcutaneous administration in CD-1 mice (Example 6); type: in vivo; parameters: RBC / Eosinophils / Monocytes: unit not given here; conditions: 50 mg/kg subcutaneous twice weekly for 7 weeks; for Basophils: n.d. = below detection levels
In short: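 Male CD-1 mice, 8-9 weeks old, 4 per group, given oligonucleotides 50 mg/kg s.c. twice weekly (100 mg/kg/week) for 7 weeks; PBS group as control. Blood analysed on an automated hematology analyzer for blood cell counts and other markers; plasma collected day 28.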

[7] = Plasma chemistry markers after subcutaneous administration in CD-1 mice (Example 6); type: in vivo; conditions: CD-1 mice plasma at day 46; 50 mg/kg subcutaneously twice a week for 7 weeks
[8] = test system: murine Smad7 mRNA; assay: Dose-dependent inhibition of murine Smad7 mRNA in bEND cells, electroporation (Example 5, Study 2); type: cell-based, mouse; conditions: electroporation; for % inhibition of SMAD7 mRNA expression: approximately 16 hours
In short: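 Mouse bEND cells electroporated with oligonucleotide at several doses and treated for approximately 16 hours. Smad7 mRNA quantified by real-time RT-PCR (primer probe set RTS1114), normalised to total RNA by RiboGreen. Reported as percent inhibition relative to untreated cells.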

[9] = test system: human SMAD7 mRNA; assay: Dose-dependent inhibition of human SMAD7 mRNA expression in A431 cells, oligonucleotide added without transfection (Example 5, Study 1); type: cell-based; conditions: approximately 48 hours; for IC50: SMAD7 mRNA
In short: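 A431 cells dosed with antisense oligonucleotide at 0.08–20.00 μM by free uptake immediately after plating, 48 h at 37° C. SMAD7 mRNA quantified by qRT-PCR (primer probe set RTS5062), normalised to RiboGreen total RNA. Values are % inhibition versus untreated cells.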

Question: What does the source list for “830025 (antisense TTTGTAAATCGAAAGC; 3-10-3 cEt gapmer, further chemistry not given here) [compound 830025]”?
Answer: ALT (% of control) [1]: 117 % of control; AST (% of control) [1]: 106 % of control; Albumin (% of control) [1]: 96 % of control; BUN (% of control) [1]: 93 % of control; Bilirubin (% of control) [1]: 96 % of control; Oligonucleotide concentration in the plasma on day 28 ([2]; 2 hr): 13.6 ng/mL; Oligonucleotide concentration in the plasma on day 28 ([2]; 4 hr): 3.8 ng/mL; Oligonucleotide concentration in the plasma on day 28 ([2]; 8 hr): 1.7 ng/mL; Oligonucleotide concentration in the plasma on day 28 ([2]; 24 hr): 0.0 ng/mL; Organ weights, Kidneys [3]: 0.6 g; Organ weights, Liver [3]: 2.2 g; Organ weights, Spleen [3]: 0.2 g; Kidney weight (% of control) [4]: 99 % of control; Liver weight (% of control) [4]: 79 % of control; Spleen weight (% of control) [4]: 87 % of control; Mouse Smad7 mRNA expression (% inhibition), Colon [5]: 39 % inhibition; Mouse Smad7 mRNA expression (% inhibition), Duodenum [5]: 51 % inhibition; Mouse Smad7 mRNA expression (% inhibition), Ileum [5]: 0 % inhibition; Mouse Smad7 mRNA expression (% inhibition), Kidney [5]: 31 % inhibition; Mouse Smad7 mRNA expression (% inhibition), Liver [5]: 25 % inhibition; Eosinophils [6]: 3.8; Hematocrit [6]: 38.7%; Hemoglobin [6]: 12.5 g/dL; Lymphocytes [6]: 83.2%; MCH [6]: 15.7 pg; MCHC [6]: 32.3 g/dL; MCV [6]: 48.8 fL; Monocytes [6]: 3.2; Neutrophils [6]: 9.3%; RBC [6]: 8.0; Reticulocytes [6]: 3.3%; WBC [6]: 4.8 10^3/μL; platelets [6]: 805.0 10^3/μL; Basophils [6]: 0.6 10^3/μL; ALT [7]: 208 IU/L; AST [7]: 263 IU/L; Albumin [7]: 2.5 g/dL; BUN [7]: 25 mg/dL; % inhibition of SMAD7 mRNA expression ([8]; 0.25 μM): 15%; % inhibition of SMAD7 mRNA expression ([8]; 0.74 μM): 27%; % inhibition of SMAD7 mRNA expression ([8]; 2.22 μM): 51%; % inhibition of SMAD7 mRNA expression ([8]; 6.67 μM): 67%; % inhibition of SMAD7 mRNA expression ([8]; 20.00 μM): 77%; IC50 [8]: 2.7 µM; % inhibition of SMAD7 mRNA expression ([9]; 0.08 μM): 16%; % inhibition of SMAD7 mRNA expression ([9]; 0.25 μM): 30%; % inhibition of SMAD7 mRNA expression ([9]; 0.74 μM): 22%; % inhibition of SMAD7 mRNA expression ([9]; 2.22 μM): 41%; % inhibition of SMAD7 mRNA expression ([9]; 6.67 μM): 54%; % inhibition of SMAD7 mRNA expression ([9]; 20.00 μM): 67%; IC50 [9]: 4.7 µM

Question: Which results are given for “790615 (CCAATGAGAATGCTTC; 3-10-3 cEt gapmer, further chemistry not given here) [compound 790615]”?
Answer: ALT (% of control) [1]: 118 % of control; AST (% of control) [1]: 147 % of control; Albumin (% of control) [1]: 98 % of control; BUN (% of control) [1]: 108 % of control; Bilirubin (% of control) [1]: 102 % of control; Oligonucleotide concentration in the plasma on day 28 ([2]; 2 hr): 16.7 ng/mL; Oligonucleotide concentration in the plasma on day 28 ([2]; 4 hr): 4.8 ng/mL; Oligonucleotide concentration in the plasma on day 28 ([2]; 8 hr): 0.5 ng/mL; Oligonucleotide concentration in the plasma on day 28 ([2]; 24 hr): 0.0 ng/mL; Organ weights, Kidneys [3]: 0.6 g; Organ weights, Liver [3]: 2.0 g; Organ weights, Spleen [3]: 0.2 g; Kidney weight (% of control) [4]: 94 % of control; Liver weight (% of control) [4]: 85 % of control; Spleen weight (% of control) [4]: 106 % of control; Mouse Smad7 mRNA expression (% inhibition), Colon [5]: 72 % inhibition; Mouse Smad7 mRNA expression (% inhibition), Duodenum [5]: 54 % inhibition; Mouse Smad7 mRNA expression (% inhibition), Ileum [5]: 0 % inhibition; Mouse Smad7 mRNA expression (% inhibition), Kidney [5]: 41 % inhibition; Mouse Smad7 mRNA expression (% inhibition), Liver [5]: 52 % inhibition; Eosinophils [6]: 2.5; Hematocrit [6]: 46.2%; Hemoglobin [6]: 15.2 g/dL; Lymphocytes [6]: 82.8%; MCH [6]: 14.7 pg; MCHC [6]: 32.8 g/dL; MCV [6]: 44.8 fL; Monocytes [6]: 5.0; Neutrophils [6]: 9.7%; RBC [6]: 10.3; Reticulocytes [6]: 3.5%; WBC [6]: 10.5 10^3/μL; platelets [6]: 1055.8 10^3/μL; Basophils [6]: 0.1 10^3/μL; ALT [7]: 65 IU/L; AST [7]: 97 IU/L; Albumin [7]: 2.2 g/dL; BUN [7]: 22 mg/dL; % inhibition of SMAD7 mRNA expression ([8]; 0.25 μM): 7%; % inhibition of SMAD7 mRNA expression ([8]; 0.74 μM): 18%; % inhibition of SMAD7 mRNA expression ([8]; 2.22 μM): 37%; % inhibition of SMAD7 mRNA expression ([8]; 6.67 μM): 47%; % inhibition of SMAD7 mRNA expression ([8]; 20.00 μM): 64%; IC50 [8]: 7.3 µM; % inhibition of SMAD7 mRNA expression ([9]; 0.08 μM): 14%; % inhibition of SMAD7 mRNA expression ([9]; 0.25 μM): 43%; % inhibition of SMAD7 mRNA expression ([9]; 0.74 μM): 55%; % inhibition of SMAD7 mRNA expression ([9]; 2.22 μM): 63%; % inhibition of SMAD7 mRNA expression ([9]; 6.67 μM): 70%; % inhibition of SMAD7 mRNA expression ([9]; 20.00 μM): 75%; IC50 [9]: 0.7 µM
